Experimental data reported in patent US6362167B1, “Method of blocking free radical processes which result in mediated pathology without deleterious pro-oxidant side reactions” (Natreon Inc., priority 1999, dated 2002).
Converted amounts (≈) assume the structure as drawn.

Legend:
[1] = DPPH radical scavenging (antioxidant activity); format: biochemical; details: DPPH 100 μM in absolute ethyl alcohol, 20 minutes, absorbance 570 nm; mean ± SEM (n = 10 to 12)
Procedure: After 20 minutes, the absorbance (optical density) of the mixture was measured at a wavelength of 570 nm and compared to that of the control sample. The degree of scavenging of the DPPH radical by each test sample was calculated by comparing the absorbance of the test sample and the diluent control reaction mixture. The results are shown in Table 2 below, a lower IC value indicating a better antioxidant effect on the DPPH radical.

[2] = Polymerization of methylmethacrylate (MMA) to polymethylmethacrylate (PMMA) by Fenton's reagent; details: for Effect on polymerization of MMA→PMMA: low concentrations of ascorbic acid (1.0 mg in b63)
Procedure: Thus, the pro-oxidant effect of a low concentration of AA could be systemically quite dangerous due to distinct involvement of OH radicals. […] N2 was passed through the mixture for 30 min. followed by H2O2. The onset of polymerization (the induction period in minutes) was noted. Polymerization was completed in about 24 hours at 35±2° C. The resulting precipitate was collected, washed and dried at 50° C. until a constant weight was obtained (See Table 3).

PBR 322 plasmid DNA = experiment: Prevention of DNA strand scission by hydroxyl radical from Cu(en)2-hydrogen peroxide; format: biochemical
Procedure: The DNA strand scission was investigated by a method published by T. Ozawa, et al [Biochem. Mol. Biol. Int. 31, 455-46, 1993]. The method consists of addition of hydrogen peroxide (30%, final concentration 25 mM) to a mixture of Cu(en)2 (final concentration 0.25 mM) and 0.5 mcg of PBR 322 plasmid DNA solution (Takara Co., Japan). The hydroxyl radical, generated from Cu(en)2-hydrogen peroxide reaction, caused DNA strand scission.

[3] = 3 g sample added (so in the source)
[4] = DNA + OH radical + test material

## O=C1O[C@H]([C@@H](O)CO)C(O)=C1O [AA, Ascorbic acid]
[1]
  IC50 (DPPH radical scavenging): 18.41 ± 3.88 µg/mL (≈ 105 µM)
[2]; 1 mg sample added
  % Conversion of MMA → PMMA: 78.7 ↑ %
  Induction Time: 0 min
  Yield of PMMA: 772 mg
[2]; 2 mg sample added
  % Conversion of MMA → PMMA: 69.8 ↑ %
  Induction Time: 0 min
  Yield of PMMA: 692 mg
[2]; 4 mg sample added
  % Conversion of MMA → PMMA: 44.0%
  Induction Time: 0 min
  Yield of PMMA: 432 mg
[2]; 5 mg sample added
  % Conversion of MMA → PMMA: 23.1%
  Induction Time: 0 min
  Yield of PMMA: 227 mg
[2]; 10 mg sample added
  % Conversion of MMA → PMMA: 8.4%
  Induction Time: 0 min
  Yield of PMMA: 83 mg
[2]; [3]
  % Conversion of MMA → PMMA: 68.2 ↑ %
  Induction Time: 0 min
  Yield of PMMA: 670 mg
[2]
  Effect on polymerization of MMA→PMMA: significant augmentation of polymerization
[2]; listed as ascorbic acid
  Effect on polymerization of MMA→PMMA: augmented polymerization
PBR 322 plasmid DNA; [4]
  Linear form of DNA (LIN, Produced after breakage): 60%
  Open circular form Of DNA (OC): 40%
PBR 322 plasmid DNA; physiological pH, Cu(en)2 and hydrogen peroxide
  Effect on DNA strand-scission by hydroxyl radicals compared to the control value: accelerated

## CC(=O)Oc1c(C)c(C)c2c(c1C)CCC(C)(CCC[C@H](C)CCC[C@H](C)CCCC(C)C)O2 (stereo partly drawn) [α-Tocopheryl acetate (TA), α-Tocopheryl acetate]
[1]
  IC50 (DPPH radical scavenging): 50.55 ± 7.03 µg/mL
